# Laboratory results taken from US12168020B2, “Method for ameliorating, preventing or treating muscular atrophy or sarcopenia by administering composition comprising 2′-fucosyllactose as active ingredient” (ADVANCED PROTEIN TECHNOLOGIES CORP., priority 2021, dated 2024).
# How the values were obtained:
# C2C12 myotubes, MHC = assay: MHC expression analysis by immunocytochemical staining (myocyte differentiation); assay type: cell-based, mouse; settings: C2C12, 2′-FL 100 and 200 μM, 24 hours, vs control group
# Description: In order to differentiate mouse myoblasts into myotubes, the mouse myoblasts were seeded at a concentration of 4×10^5 cells/well in each well of a 6-well plate, cultured for 24 hours until confluence reached 100% and then 2% horse serum was added thereto. Then, the mouse myoblasts were differentiated for 6 days while exchanging the DMEM containing 2% horse serum with fresh DMEM every 2 days. Immunocytochemical staining was performed to determine the effect of treatment with 2′-FL on myocyte differentiation. Specifically, C2C12 was treated with 2′-FL at different concentrations (100 and 200 μM) for 24 hours, and then fixed with a 4% paraformaldehyde solution for 10 minutes. The fixed cells were washed with PBS containing 0.1% Triton X-100 and then reacted in 5% BSA solution for 1 hour. The cells were washed 3 times with 1×PBS again and then were allowed to react with an MHC antibody (Cell signaling) at room temperature overnight. After the reaction was completed, the cells were washed 3 times with PBS and reacted with Alexa Fluor 488 goat anti-rabbit IgG at room temperature for 1 hour, and then nuclei thereof were stained with a horchest solution and observed under a fluorescence microscope. At this time, the AMPK agonist A-769662 (1 μM) was used as a positive control.
# atrogin-1 protein = assay: Dexamethasone-induced muscular atrophy mouse model: atrogin-1 immunoblotting of muscle tissue; assay type: in vivo; settings: 2′-FL at a high concentration (400 mg/kg oral), dexamethasone 10 mg/kg i.p., vs Veh
# Description: In order to determine whether or not 2′-FL has a prophylactic effect against muscular atrophy in an animal model, 2′-FL was orally administered at a concentration of 200 or 400 mg/kg to 7-week-old male C57BL/6 mice for 7 days, followed by intraperitoneal injection of dexamethasone known as a drug inducing muscular atrophy at a concentration of 10 mg/kg, and at the same time, oral administration of 2′-FL for 2 weeks. At this time, the experiment was conducted on mouse experimental groups, namely, a Nor group that received intraperitoneal injection of saline and distilled water, a that received intraperitoneal injection of Veh group dexamethasone and was orally administered distilled water, and a 2FLL group and a 2FLH group that received intraperitoneal injection of dexamethasone and was orally administered 2′-FL at 200 mg/kg and 400 mg/kg, respectively. Proteins were extracted by adding a Halt™ protease inhibitor to lysis buffer (10 mM Tris-HCl, pH 7.5, 1% NP-40, 0.1% sodium deoxycholate, 0.1% SDS, 150 mM NaCl, and 1 mM EDTA) in order to confirm protein expression using mouse muscle tissue and then immunoblotting was performed. As primary antibodies, anti-α-tubulin (1:1000) and anti-atrogin-1 (1:1000) were used. The resulting image of immunoblotting was analyzed using a ChemiDoc™ touch imaging system (Bio-Rad) and Image Lab 5.2 software (Bio-Rad).
# [1] = test system: C2C12, a mouse muscle (myoblast) cell line; assay: MTT assay, cytotoxicity of 2′-FL in C2C12; assay type: cell-based; settings: C2C12, 2′-FL 100, 200, 400 μM, 24 hours, vs control group
# Description: C2C12, a mouse muscle (myoblast) cell line, was cultured at 37° C. in the presence of 5% CO2 using a medium containing 90% DMEM, 10% FBS, and 10 unit/ml penicillin-streptomycin. In order to confirm the cytotoxicity of 2′-FL, the C2C12 cell line was seeded in each well of a 96-well plate at a concentration of 5×10^4 cells/well, cultured for 24 hours, and then treated with 2′-FL at various concentrations (100, 200, 400 μM) for 24 hours. Then, the medium was removed and a growth medium and 0.5 mg/ml of a diluted MTT solution were aliquoted in an amount of […] and incubated in a CO2 incubator. After 2 hours, the MTT reagent was removed, formazin was dissolved in DMSO (dimethyl sulfoxide), and absorbance was measured at 540 nm.
# C57BL/6 mice [2] = assay: Dexamethasone-induced muscular atrophy mouse model: grip strength test; assay type: in vivo; settings: 2′-FL 200 or 400 mg/kg oral, dexamethasone 10 mg/kg i.p., day before end of experiment, vs Veh
# Description: (§1) In order to determine whether or not 2′-FL has a prophylactic effect against muscular atrophy in an animal model, 2′-FL was orally administered at a concentration of 200 or 400 mg/kg to 7-week-old male C57BL/6 mice for 7 days, followed by intraperitoneal injection of dexamethasone known as a drug inducing muscular atrophy at a concentration of 10 mg/kg, and at the same time, oral administration of 2′-FL for 2 weeks. At this time, the experiment was conducted on mouse experimental groups, namely, a Nor group that received intraperitoneal injection of saline and distilled water, a that received intraperitoneal injection of Veh group dexamethasone and was orally administered distilled water, and a 2FLL group and a 2FLH group that received intraperitoneal injection of dexamethasone and was orally administered 2′-FL at 200 mg/kg and 400 mg/kg, respectively. All experimental animals were subjected to a grip strength test using a grip strength meter (Jeongdo Bio & Plant Co., Ltd.) the day before the end of the experiment.
# [3] = test system: differentiated C2C12 treated with dexamethasone; assay: Protection against dexamethasone-induced growth inhibition (trypan blue cell count); assay type: cell-based, mouse; settings: 2′-FL high concentration (200 μM) 1 hour before dexamethasone 400 μM for 24 hours, vs dexamethasone group (Veh)
# Description: Dexamethasone, a synthetic glucocorticoid, is known to decrease the rate of protein synthesis and increase the rate of protein degradation in muscles in vivo or in cultured cells. Accordingly, 1 hour after treatment of C2C12, which had been differentiated, with 2′-FL, C2C12 was treated with dexamethasone at a concentration of 400 μM for 24 hours to determine the muscular atrophy prevention effect of 2′-FL in a cell model. In order to evaluate the prophylactic effect of growth inhibition caused by treatment with dexamethasone, C2C12 was treated with 2′-FL and dexamethasone in the same manner as above, the cells were removed with trypsin, and the number of the cells was counted using trypan blue staining.
# [4] = test system: differentiated C2C12 treated with dexamethasone, mitochondria; assay: Protection against dexamethasone-induced mitochondrial function inhibition; assay type: cell-based, mouse; settings: 2′-FL 100 or 200 μM, dexamethasone 400 μM 24 hours, vs dexamethasone group
# Description: Dexamethasone, a synthetic glucocorticoid, is known to decrease the rate of protein synthesis and increase the rate of protein degradation in muscles in vivo or in cultured cells. Accordingly, 1 hour after treatment of C2C12, which had been differentiated, with 2′-FL, C2C12 was treated with dexamethasone at a concentration of 400 μM for 24 hours to determine the muscular atrophy prevention effect of 2′-FL in a cell model. After treatment with dexamethasone, mtDNA expression and mitochondrial density were measured. […] In FIG. 6, 2FLL represents a group treated with 2′-FL at 100 μM, and 2FLH represent a group treated with 2′-FL at 200 μM.
# atrogin-1 gene = assay: qPCR of muscular atrophy gene atrogin-1 after dexamethasone; assay type: cell-based, mouse; settings: 2′-FL 100 or 200 μM, dexamethasone 400 μM 24 hours, vs dexamethasone group (Veh)
# C57BL/6 mice [5] = assay: Dexamethasone-induced muscular atrophy mouse model: body weight and plasma liver function test; assay type: in vivo; settings: dexamethasone 10 mg/kg i.p., vs Veh
# Description: as §1, with “respectively.” for “respectively. All experimental animals were subjected to a grip strength test using a grip strength meter (Jeongdo Bio & Plant Co., Ltd.) the day before the end of the experiment.”
# [6] = test system: differentiated C2C12, mitochondria; assay: Mitochondrial function: mtDNA expression and mitochondrial density (MitoTracker); assay type: cell-based, mouse; settings: differentiated C2C12, 2′-FL 100 and 200 μM, 24 hours, vs control group
# Description: Mitochondria have mitochondrial DNA (mtDNA) that is isolated from their own nuclear DNA. […] Such damage to mtDNA causes a decrease in mitochondrial function, leading to a decrease in synthesis of ATP, which is an energy molecule required for cellular a decrease in the ability to regulate activity, and homeostasis in vivo, which eventually causes the onset of various diseases. Accordingly, mtDNA expression and mitochondrial density upon treatment with 2′-FL were measured. […] C2C12 was treated with 2′-FL at different concentrations (100 and 200 μM) for 24 hours, was washed with PBS, added with a medium containing 200 nM of a MitoTracker green probe and cultured for 30 minutes. Then, the portion bound to the MitoTracker green probe was quantified with SpectraMax that absorbs a wavelength of 490 nm and emits a wavelength of 516 nm to measure the density of mitochondria. At this time, the AMPK agonist A-769662 (1 μM) was used as a positive control.
# [7] = test system: C57BL/6 mice, muscle tissue; assay: Dexamethasone-induced muscular atrophy mouse model: H&E muscle histology and muscle tissue weight; assay type: in vivo; settings: 2FLH (2′-FL 400 mg/kg oral), dexamethasone 10 mg/kg i.p., vs Veh
# Description: as §1, with “The mouse muscle tissue was stained” for “All experimental animals were subjected to a grip strength test”, “using” for “using a grip strength meter (Jeongdo Bio & Plant Co., Ltd.)”, “H&E method and then histological morphology was observed.” for “day before the end of the experiment.”
# MuRF1 gene = assay: qPCR of muscular atrophy gene MuRF1 after dexamethasone; assay type: cell-based, mouse; settings: 2′-FL 100 or 200 μM, dexamethasone 400 μM 24 hours, vs dexamethasone group (Veh)
# [8] = test system: C2C12 myotubes treated with dexamethasone; assay: Protection against dexamethasone-induced differentiation inhibition (myotube length and diameter); assay type: cell-based, mouse; settings: 2′-FL high concentration (200 μM), dexamethasone 400 μM 24 hours, vs dexamethasone group (Veh)
# Description: Dexamethasone, a synthetic glucocorticoid, is known to decrease the rate of protein synthesis and increase the rate of protein degradation in muscles in vivo or in cultured cells. Accordingly, 1 hour after treatment of C2C12, which had been differentiated, with 2′-FL, C2C12 was treated with dexamethasone at a concentration of 400 μM for 24 hours to determine the muscular atrophy prevention effect of 2′-FL in a cell model. Meanwhile, in order to evaluate the prophylactic effect of the differentiation inhibition caused by treatment with dexamethasone, the length and diameter of myotubes were measured after treatment with dexamethasone.
# PGC-1α mRNA = assay: qPCR of mitochondrial biosynthesis gene PGC-1α; assay type: cell-based, mouse; settings: C2C12, 2′-FL at a high concentration, vs control group
# Text: (§2) Mitochondria are organelles that have a main function of generating ATP, which is a form of intracellular energy, and perform various intracellular functions such as metabolism, signal transduction, apoptosis, and differentiation. Metabolic adaptation in skeletal muscle is achieved by the regulation of various genes, and PGC-1α (peroxisome proliferator-activated receptor-γ coactivator-1α) transcriptional cofactor is known to perform the most important role therefor. Accordingly, the mRNA expression changes of PGC-1α and the downstream gene thereof, NRF2, were determined upon treatment with 2′-FL.
# (§3) For this purpose, CDNA was synthesized from RNA extracted from C2C12 cells using ReverTra Ace qPCR RT Kit (TOYOBO). In order to increase the efficiency of the reaction, the RNA was pre-heated at 65° C. for 5 minutes and then immediately stored on ice. Then, a total of 8 μl of reagent was prepared from 2 μl of 4×DN master mix containing a gDNA remover, 0.5 μg of mRNA, and nuclease-free water, and then was amplified at 37° C. for 5 minutes.
# (§4) The reacted reagent was added with a 5×RT master mix, and amplified at 37° C. for 15 minutes, at 50° C. for 5 minutes, and at 98° C. for 5 minutes to synthesize cDNA. Then, the synthesized cDNA was subjected to qPCR using Thunderbird TMSYBR qPCR mix reagent (TOYOBO). The gene expression level was analyzed with the iQ5 Cycler System (Bio-Rad). […]
# NRF2 mRNA = assay: qPCR of mitochondrial biosynthesis gene NRF2; assay type: cell-based, mouse; settings: C2C12, 2′-FL at a high concentration, vs control group
# Text: as §2, §3, §4
substance,measurement,setting,value
2′-fucosyllactose [2′-FL],MHC expression,"C2C12 myotubes, MHC",increased
same,length and thickness of myotubes,"C2C12 myotubes, MHC",increased
same,expression of atrogin-1 protein in muscle tissue,atrogin-1 protein,significantly decreased
same,cell viability,[1],no difference in cell viability
same,grip strength,C57BL/6 mice [2],significantly increased
same,number of cells,[3],significantly increased
same,mitochondrial function (mtDNA expression and mitochondrial density),[4],significantly increased
same,atrogin-1 gene expression,atrogin-1 gene,significantly decreased
same,mouse weight,"C57BL/6 mice [5]; 2FLH (2′-FL 400 mg/kg oral), 3 weeks",increased
same,plasma GOT activity,C57BL/6 mice [5]; 2′-FL 200 or 400 mg/kg oral,lowered
same,plasma GPT activity,C57BL/6 mice [5]; 2′-FL 200 or 400 mg/kg oral,lowered
same,mitochondrial density measured using the MitoTracker,[6],increased in a concentration-dependent manner
same,mtDNA expression,[6],significantly increased in a concentration-dependent manner
same,"muscular atrophy morphological characteristics (decreased muscle bundle size, imbalance in nuclear location), H&E",[7],ameliorated
same,weight of extensor digitorum longus,[7],significantly increased
same,weight of gastrocnemius muscle,[7],significantly increased
same,weight of muscle tissue (unspecified),[7],significantly increased
same,MuRF1 gene expression,MuRF1 gene,significantly decreased
same,diameter of myotubes,[8],significantly increased
same,length of myotubes,[8],significantly increased
same,expression of PGC-1α mRNA,PGC-1α mRNA,significantly increased
same,expression of NRF2 mRNA,NRF2 mRNA,significantly increased
